Data as given in PMC8063026 (Frontiers in Pharmacology, 2021).
Where two headings read alike, the source gives them in different places.

How the values were obtained:
human NET [1] = target: T1, human NET (Homo sapiens, UniProt P23975); experiment: cell-based; settings: for pIC50 NET: QSAR data matrix, from IC50 NET
T1 construct: expressed in transfected cells

SERT [2] = target: T2, SERT (Homo sapiens, UniProt P31645); settings: cited from earlier work
T2 construct: expressed in transfected cells

SERT [3] = target: T2, SERT; experiment: Uptake-inhibition of [3H]5-HT in HEK293 cells stably expressing human SERT; format: cell-based
DAT [4] = target: T3, DAT (Homo sapiens, UniProt Q01959); settings: cited from earlier work
T3 construct: expressed in transfected cells

human NET [5] = target: T1, human NET; settings: QSAR data matrix; unit inferred; compounds not tested in this paper, source not given, presumably ref Mayer et al., 2019; cited from earlier work
DAT [6] = target: T3, DAT; experiment: cell-based
SERT [7] = target: T2, SERT; experiment: Transporter electrophysiology (whole cell patch clamp), HEK293 cells stably expressing SERT; format: cell-based; settings: compound applied at 30 µM, -60 mV
Protocol: (§1) Human embryonic kidney 293 cells (HEK293 cells) were cultivated in Dulbecco’s Modified Eagle Medium (DMEM), containing 10% heat-in- activated fetal calf serum (FCS), streptomycin (100 μg x 100 ml−1) and penicillin (100 U × 100 ml−1). Geneticin (50 μg x mL−1) was added to select HEK293 cells stably expressing the human isoforms of DAT, NET and SERT as described earlier ([Mayer et al., 2016a]). Cell lines were maintained in a sub-confluent state in humidified atmosphere (37°C, 5% CO2). For uptake inhibition experiments cells expressing the desired transporter were seeded the days before the experiment (40,000 cells per well) or two days before the experiments (20,000 cells per well) onto poly-D-lysine (PDL) coated 96-well plates 24 h prior to the experiment. In the case of transporter-electrophysiology cells were cultivated in 10 cm dishes and 24 h before the experiments they were detached, and seeded at low density onto PDL-coated 3 cm dishes.
(§2) Transporter electrophysiology was conducted by the means of whole cell patch clamp in HEK293 cells stably expressing DAT or SERT. Substrate-induced currents were recorded under voltage clamp (−60 mV). Cells were continuously superfused with a physiological external solution that contains 140 mM NaCl, 2.5 mM CaCl2, 2 mM MgCl2, 20 mM glucose and 10 mM HEPES, pH = 7.4. The pipette solution contained 133 mM potassium gluconate, 6 mM NaCl, 1 mM CaCl2, 0.7 mM MgCl2, 10 mM HEPES, 10 mM EGTA, pH = 7.2. Currents elicited by mephedrone 30 μM, were measured at room temperature (20–24°C) using an […] amplifier and pClamp 11.2 software (MDS Analytical Technologies). All the solutions perfused onto the cell were applied using a DAD-12 superfusion system and a 8-tube perfusion manifold (ALA Scientific Instruments), which allowed for rapid solution exchange. Current traces were filtered at 1 kHz and digitized at 10 kHz using a Digidata 1,550 (MDS Analytical Technologies). […] For the analysis, passive holding currents were subtracted, and the traces were filtered using a 100-Hz digital Gaussian low-pass filter.

DAT [8] = target: T3, DAT; experiment: Transporter electrophysiology (whole cell patch clamp), HEK293 cells stably expressing DAT; format: cell-based; settings: compound applied at 30 µM, -60 mV
Protocol: as §1, §2

[9] = ref Olesti et al., 2019, cited from earlier work
[10] = LC-MS/MS detection of mephedrone metabolites in a human urine sample; format: in vivo; design: key to Detected in urine samples: detected (+); not detected (−); settings: for Detected in urine samples: human urine, mephedrone user, only syn- and anti-configurations could be separated; for detection in human urine sample: achiral LC-MS/MS, after enzymatic workup
Description: The biological specimen, human urine, was provided by the Department of Chemical Analytics, Seibersdorf Laboratories GmbH. The sample was taken from a subject postmortem in a fatal case of drug overdose. […] Given this fact, we assumed that also the metabolites would be detectable in sufficient quantity. To evaluate the presence of any metabolites whatsoever in the urine sample we designed an achiral separation protocol for liquid chromatography and we coupled it with triple quadrupole mass spectrometer. The advantage of LC-MS/MS system is that even if two substances have the same retention time, they can still be differentiated by their fragmentation pattern. More in details, the samples for urine analysis were analyzed using a CTC HTS PAL autosampler (CTC Analytics) and a Thermo Surveyor LC system (Thermo) interfaced to a TSQ Quantum Discovery Max triple quadrupole mass spectrometer (Thermo). A C18 security guard cartridge (4 × 2 mm) (Phenomenex) was used for sample clean-up and the analytical HPLC column was a Kinetex 1.7 μm C18 100Å 150 × 2.1 mm (Phenomenex) and Cortecs T3, 2.7 μm C18 120Å 100 × 2.1 mm (Waters). Column selection was performed by a Maylab Mistraswitch column selector (Maylab Analytical Instruments). The solvents were 0.2% formic acid in water (A) and acetonitrile (B). The temperature of the analytical column was maintained at 40°C. The mass spectrometer was equipped with heated electrospray ionization (ESI) source and was operated in positive ionization mode with a spray voltage set at 4500V. The capillary temperature was adjusted to 320°C. The sheath and auxiliary gas (nitrogen) flow rate was 25 and 10 arbitrary units, respectively. The system was operated in selected […] (srm) mode with argon as the collision gas at a pressure of 1.5 mTorr. For the achiral separation, stem solutions were prepared by weighing the reference substances in volumetric flasks and filling them up with MeOH (99.9%; HPLC grade), creating average concentration of 1 mg/ml. Then dilution solutions were prepared as follows: 10 μL of stem solution was filled up to 5 ml MeOH, creating dilution […]. Samples were prepared from dilution solutions by taking out 25 μL and mixing it together with 25 μL of ISP, 50 μL ISS and filled up to 1 ml with Milli-Q water. The final sample solvent was water/MeOH 9/1. For the enzymatic workup, phosphate buffer (1 ml, 0.8M, pH = 7), β-glucuronidase/arylsulfatase (25 μL) and β-glucuronidase (25 μL) were added to the solutions. The solutions were heated at 50°C during 1 h upon which EtOAc (7 ml) was added. The solution was put into shaker for 10min, following centrifugation for 5 min. The organic phase was separated and evaporated into dryness in stream of pressurized nitrogen. The residue was taken up in 150 μL MQ-water/MeOH 9/1 + 0.4% formic acid, heated at 50°C for 5 min and subjected to LC-MS analysis.
If on one hand the synthesis of putative metabolites allows the establishment of structure activity relationships, on the other hand, it provides pure material to evaluate their presence in human urine samples and determine their pharmacological relevance. To determine the presence of any metabolites in the urine sample, we have designed an achiral separation protocol and coupled the liquid chromatography with triple quadrupole mass spectrometer (LCMS/MS). With the LCMS/MS system two substances with the same retention time, can still be differentiated by their fragmentation pattern. Since metabolites carrying a primary alcohol functionality can form glucuronide and sulfate conjugates, we performed an enzymatic workup of the urine sample in order to cleave them. Apart from the parental drug, we detected 4-OH-MMC and 4-MC (nor-meph) which we have both already identified in our previous publication ([Mayer et al., 2019]), and the two previously uncharacterized metabolites 4-COOH-MC and dihydro-4-MC (Figure 6). […]

[11] = cited from earlier work; for relative abundance: minor metabolites in rats, ref Linhart et al., 2016
SERT [12] = tested on: SERT; design: method as in Gregg et al., 2015; Mayer et al., 2016b; Mayer et al., 2019; settings: ref Gregg et al., 2015, Mayer et al., 2016b, 2019; cited from earlier work
[13] = ref Meyer et al., 2010; cited from earlier work
[14] = QSAR data matrix, unit inferred, compounds not tested in this paper, source not given, presumably ref Mayer et al., 2019, read-out: IC50 SERT
[15] = QSAR data matrix, from IC50 SERT
[16] = QSAR data matrix, unit inferred, compounds not tested in this paper, source not given, presumably ref Mayer et al., 2019, read-out: IC50 DAT
[17] = QSAR data matrix, from IC50 DAT
[18] = QSAR data matrix, from IC50 DAT, read-out: pIC50 DAT (converted)

T3 sequence (Q01959 whole entry): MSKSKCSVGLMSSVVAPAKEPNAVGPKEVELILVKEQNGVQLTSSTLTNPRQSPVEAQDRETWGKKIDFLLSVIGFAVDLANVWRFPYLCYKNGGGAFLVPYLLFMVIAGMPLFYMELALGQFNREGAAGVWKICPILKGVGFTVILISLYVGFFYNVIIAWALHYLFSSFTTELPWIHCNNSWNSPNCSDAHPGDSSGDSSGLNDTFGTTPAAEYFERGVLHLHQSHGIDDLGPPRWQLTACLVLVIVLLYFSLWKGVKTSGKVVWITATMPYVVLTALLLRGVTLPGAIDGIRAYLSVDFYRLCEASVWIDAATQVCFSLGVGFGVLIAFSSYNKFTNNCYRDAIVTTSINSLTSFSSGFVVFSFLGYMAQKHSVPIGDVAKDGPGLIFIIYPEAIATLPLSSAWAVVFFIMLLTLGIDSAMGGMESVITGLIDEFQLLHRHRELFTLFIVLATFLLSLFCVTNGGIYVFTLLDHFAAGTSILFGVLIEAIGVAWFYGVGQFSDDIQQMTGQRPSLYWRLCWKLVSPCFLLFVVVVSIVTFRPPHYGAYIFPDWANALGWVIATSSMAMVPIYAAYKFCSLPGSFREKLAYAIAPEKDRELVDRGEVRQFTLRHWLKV
T1 sequence (P23975 whole entry): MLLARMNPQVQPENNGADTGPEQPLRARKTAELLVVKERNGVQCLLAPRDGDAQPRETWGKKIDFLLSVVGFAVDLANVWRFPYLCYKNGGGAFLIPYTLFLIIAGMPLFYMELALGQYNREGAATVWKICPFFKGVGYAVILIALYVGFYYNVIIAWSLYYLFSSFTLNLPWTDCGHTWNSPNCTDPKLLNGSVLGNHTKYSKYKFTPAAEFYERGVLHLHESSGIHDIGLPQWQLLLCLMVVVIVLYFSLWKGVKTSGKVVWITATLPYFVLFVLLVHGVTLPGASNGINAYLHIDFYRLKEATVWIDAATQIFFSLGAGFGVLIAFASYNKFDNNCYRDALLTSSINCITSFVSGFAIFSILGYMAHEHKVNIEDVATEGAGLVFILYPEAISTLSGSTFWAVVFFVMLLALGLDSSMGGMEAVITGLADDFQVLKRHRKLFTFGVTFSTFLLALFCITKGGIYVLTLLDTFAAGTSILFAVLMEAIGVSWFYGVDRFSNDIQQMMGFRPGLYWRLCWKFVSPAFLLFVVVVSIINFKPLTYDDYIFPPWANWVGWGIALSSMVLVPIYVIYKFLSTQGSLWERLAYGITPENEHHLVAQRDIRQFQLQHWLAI
T2 sequence (P31645 whole entry): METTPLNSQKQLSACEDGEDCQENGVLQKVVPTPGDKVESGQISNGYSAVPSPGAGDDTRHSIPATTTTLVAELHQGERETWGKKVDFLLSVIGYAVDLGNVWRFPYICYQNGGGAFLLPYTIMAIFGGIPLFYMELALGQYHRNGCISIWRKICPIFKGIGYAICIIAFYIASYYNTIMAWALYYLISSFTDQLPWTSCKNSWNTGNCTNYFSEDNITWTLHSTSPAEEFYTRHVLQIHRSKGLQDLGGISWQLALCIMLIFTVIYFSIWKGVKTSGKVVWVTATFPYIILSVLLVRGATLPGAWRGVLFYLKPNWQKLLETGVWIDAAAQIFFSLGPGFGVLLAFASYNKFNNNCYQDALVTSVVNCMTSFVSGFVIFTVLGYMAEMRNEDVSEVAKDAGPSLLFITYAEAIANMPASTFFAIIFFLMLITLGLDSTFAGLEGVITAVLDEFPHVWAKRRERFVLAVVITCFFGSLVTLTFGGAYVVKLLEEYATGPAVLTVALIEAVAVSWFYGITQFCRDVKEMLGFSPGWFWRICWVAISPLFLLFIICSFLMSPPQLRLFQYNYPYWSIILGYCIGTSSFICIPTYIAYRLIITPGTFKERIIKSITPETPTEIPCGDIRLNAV

SMILES | pIC50 NET (human NET [1]) | IC50 (SERT [2]; [14]) [µM] | pIC50 SERT (SERT [3]; [15]) | IC50 (DAT [4]; [16]) [µM] | IC50 (human NET [5]) [µM] | pIC50 DAT (DAT [6]; [17]) | detection in human urine sample [10] | other results
CN[C@@H](C)[C@H](O)c1ccc(C)cc1 [1R2S-MMC, reference compound] | 4.41 | 32.2 | 4.49 | 21.1 | 39 | 4.68 |  | 
CNC(C)C(=O)c1ccc(C)cc1 (stereo not drawn) [Mephedrone, reference compound] |  |  |  |  |  |  |  | Selectivity ratio NET/DAT (human NET [1]): 1.09; SERT-mediated current (SERT [7]): elicited both DAT- and SERT mediated currents; IC50 (SERT [2]; read-out: IC50 (µM) SERT, mean (95% confidence interval), ref Niello et al. (2019)): 8.74 µM; IC50 (DAT [4]; read-out: IC50 (µM) DAT, mean (95% confidence interval), ref Niello et al. (2019)): 3.01 µM; DAT-mediated current (DAT [8]): elicited both DAT- and SERT mediated currents; plasma concentrations ([9]; conversion of ng h/ml range): 0.090 to 1.25 µM·h; Detected in urine samples [10]: +; Selectivity ratio DAT/SERT (DAT [6]): 2.90
Cc1ccc(C(=O)[C@H](C)N)cc1 [2S-MC, reference compound] | 5.42 | 10.9 | 4.96 | 8.72 | 3.84 | 5.06 |  | 
CC(N)C(O)c1ccc(CO)cc1 (stereo not drawn) [dihydro-4-OH-MC] |  |  |  |  |  |  | not found | relative abundance [11]: 0.1–0.2%
Cc1ccc(C(=O)C(C)N)cc1 (stereo not drawn) [4-MC, nor-mephedrone, reference compound] |  |  |  |  |  |  | detected | plasma level as % of the plasma mephedrone [9]: 25%
CN[C@H](C)[C@@H](O)c1ccc(C)cc1 [1S2R-MMC, reference compound] | 4.64 | 65.6 | 4.18 | 12.7 | 22.7 | 4.90 |  | 
CNC(C)C(O)c1ccc(C)cc1 (stereo not drawn) [dihydro-4-MMC, dihydro-mephedrone, reference compound] |  |  |  |  |  |  | did not find | plasma level as % of the plasma mephedrone [9]: 10%
CN[C@@H](C)C(=O)c1ccc(C)cc1 [S-mephedrone, reference compound] |  |  |  |  |  |  |  | IC50 (human NET [1]): 2.75 µM; IC50 (SERT [2]; read-out: IC50 SERT, QSAR data matrix, unit inferred, compounds not tested in this paper, source not given, presumably ref Mayer et al., 2019): 10.7 µM; IC50 (SERT [3]; pIC50 SERT, QSAR data matrix, from IC50 SERT): 10.7 µM; potency as releaser of SERT, times higher than R-mephedrone (SERT [12]): 40 times; IC50 (DAT [6]; [18]): 0.776 µM
Cc1ccc(C(=O)[C@@H](C)N)cc1 [2R-MC, reference compound] | 5.34 | 200 | 3.70 | 9.44 | 4.54 | 5.03 |  | 
CC(N)C(=O)c1ccc(CO)cc1 (stereo not drawn) [4-OH-MC] |  |  |  |  |  |  | not found | detection in human urine [13]: not in human urine; relative abundance [11]: 0.1–0.2%; detection in rat urine ([11]; ref Meyer et al., 2010): could be detected in rat urine
CN[C@@H](C)[C@@H](O)c1ccc(C)cc1 [1S2S-MMC, reference compound] | 4.33 | 248 | 3.61 | 12.9 | 47.1 | 4.89 |  | 
CN[C@H](C)[C@H](O)c1ccc(C)cc1 [1R2R-MMC, reference compound] | 4.41 | 302 | 3.52 | 14.1 | 39.1 | 4.85 |  | 
C[C@@H](N)[C@H](O)c1ccc(CO)cc1 [Dihydro-(R,R)-4-OH-MC] |  |  |  |  |  |  |  | Selectivity ratio NET/DAT (human NET [1]): 0.61; IC50 (human NET [1]; mean (95% confidence interval), non-linear regression, read-out: IC50 (µM) NET): 46.5 µM; SERT-mediated current (SERT [7]): did not elicit any DAT or SERT-mediated current; IC50 (SERT [3]; in Figure 3, read-out: IC50(SERT)): 1400 µM; IC50 (SERT [3]; mean (95% confidence interval), non-linear regression, read-out: IC50 (µM) SERT): 1370 µM; DAT-mediated current (DAT [8]): did not elicit any DAT or SERT-mediated current; Detected in urine samples [10]: −; Selectivity ratio DAT/SERT (DAT [6]): 48.42; IC50 (DAT [6]; [18]): 28.2 µM; IC50 (DAT [6]; mean (95% confidence interval), non-linear regression, read-out: IC50 (µM) DAT): 28.3 µM
